Test results published in the SangsterLogP compilation.

Experiment: method code SF-HPLC, from DOI: 10.1016/0378-5173(85)90030-4

Compound `O=C(OCn1ncc2c(=O)[nH]cnc21)c1cccnc1` has a logP of 0.27.

For `CCCC(=O)OCn1ncc2c(=O)[nH]cnc21`, the logP was 0.6.

Compound `CCOC(=O)OCn1ncc2c(=O)[nH]cnc21` has a logP of 0.21.

For `CC(=O)OCn1ncc2c(=O)[nH]cnc21`, the logP was -0.35.

For `CC(C)(C)C(=O)OCn1cc2c(=O)[nH]cnc2n1`, the logP was 0.79.

In the case of `O=C(OCn1ncc2c(=O)[nH]cnc21)c1ccccc1`, the logP is reported as 1.5.

In the case of `CC(C)(C)C(=O)OCn1ncc2c(=O)[nH]cnc21`, the logP is reported as 1.07.

For `CCCC(=O)OCn1cc2c(=O)[nH]cnc2n1`, the logP was 0.33.

Work on `CCN(CC)C(=O)CCC(=O)OCn1ncc2c(=O)[nH]cnc21` yielded a logP of -0.22.

For `CCCC(=O)OCn1cnc2c(cnn2COC(=O)CCC)c1=O`, the logP was 1.82.

`CC(C)(C)C(=O)OCn1cnc2c(cnn2COC(=O)C(C)(C)C)c1=O` gave a logP of 2.5.

In the case of `CC(C)(C)C(=O)OCn1cc2c(=O)n(COC(=O)C(C)(C)C)cnc2n1`, the logP is reported as 2.34.
